In one assay the test system is platelet aggregation. Description: Platelet aggregation-inhibiting action (Born's turbidimetric method, platelet-rich plasma). Type of assay: cell-based, rabbit. Particulars: Oryctolagus cuniculus, 0.05 h. The protocol:
Nine volumes of blood was drawn from the carotid artery of a rabbit using a syringe containing one volume of 3.8% solution of sodium citrate. The blood was centrifuged to obtain platelet-rich plasma (PRP: 7×10^5 platelets/μl).
In a cuvette was placed 268 μl of the PRP, which was warmed in an isothermic bath at 37° C. for 2 minutes. To the cuvette was added 2 μl of an ethanol solution of a pyrazine derivative to be tested, followed by an incubation for 3 minutes. To the incubate was added a solution of a platelet-aggregation inducer, arachidonic acid or collagen. Measurement was made by Born's turbidimetric method (for example, see J. Physiol., vol. 168, p. 178, 1968). 50% inhibitory concentration for the platelet aggregation caused by arachidonic acid (50 μmol.) or collagen (10 μg/ml) was given in Table 1 using acetylsalicylic acid as the reference.
The 50% inhibitory concentration as shown in table means the concentration of a solution of the pyrazine derivative required for inhibiting the platelet aggregation to 50% when the platelet aggregation in the absence of a pyrazine derivative is taken as 100%.

A further assay concerns the target T1, cycloxygenase (Oryctolagus cuniculus, UniProt O97554).
T1 construct: The washed platelets thus obtained were employed as a cycloxygenase source; from tissue; host or cells: washed rabbit blood platelets
T1 sequence (O97554 31-606): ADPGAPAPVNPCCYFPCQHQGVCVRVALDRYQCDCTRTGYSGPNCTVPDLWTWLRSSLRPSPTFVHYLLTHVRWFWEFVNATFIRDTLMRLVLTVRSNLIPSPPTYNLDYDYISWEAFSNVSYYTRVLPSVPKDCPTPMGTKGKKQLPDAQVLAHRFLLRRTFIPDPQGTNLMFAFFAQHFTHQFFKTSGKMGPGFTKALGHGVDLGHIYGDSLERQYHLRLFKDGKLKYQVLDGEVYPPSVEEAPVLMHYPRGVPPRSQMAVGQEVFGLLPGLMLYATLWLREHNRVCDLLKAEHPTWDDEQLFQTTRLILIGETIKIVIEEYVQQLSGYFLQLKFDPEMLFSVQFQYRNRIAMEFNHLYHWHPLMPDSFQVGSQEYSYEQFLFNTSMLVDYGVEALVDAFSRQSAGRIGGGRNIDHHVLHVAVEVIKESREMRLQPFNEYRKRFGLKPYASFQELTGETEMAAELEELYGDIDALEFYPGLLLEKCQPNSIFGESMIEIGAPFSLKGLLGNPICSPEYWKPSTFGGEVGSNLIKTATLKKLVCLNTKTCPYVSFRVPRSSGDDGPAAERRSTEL
Description: Cycloxygenase inhibiting activity (washed platelets as cycloxygenase source). In kind it is biochemical. The settings on record: washed rabbit platelets, 14C-labelled arachidonic acid, 37° C., 3 minutes; read-out: 50% Inhibitory concentration (cycloxygenase). As to the method:
Nine volumes of blood was drawn from the abdominal artery of a rabbit using a syringe containing one volume of 3.8% solution of sodium citrate. Centrifugation of the blood afforded platelet-rich plasma. To the platelet-rich plasma was added 77 mM EDTA solution in a volume of 1/10 per volume of the plasma. The mixture was thoroughly mixed and centrifuged at 2500 rpm for 10 minutes. The supernatant was discarded, and the platelets were suspended in approximately 3 ml of a washing solution which was prepared by dissolving 134 mM of sodium chloride, 15 mM of trisaminomethane, 1 mM of EDTA and 5 mM of D-glucose in twice-distilled water with a pH adjusted with 1N hydrogen chloride to 7.4. The suspension was centrifuged at room temperature at 2000 rpm for 10 minutes. The supernatant was discarded, and the precipitated platelets were re-suspended in a phosphate buffer at pH 8.0 to adjust number of the platelets to 1×10^6 per μl.
The washed platelets thus obtained were employed as a cycloxygenase source.
To 3 μg of arachidonic acid and 0.2 μCi (1 μg) of ^14 C-labelled arachidonic acid placed in a glass-stoppered test tube was added one drop of a propylene glycol/ethanol solution (1:3 by volume). The ethanol was evaporated under nitrogen. To the residue were added 50 μl of a solution to be tested and then 450 μl of the washed platelets. The mixture was reacted at 37° C. for 3 minutes.
To the reaction mixture was added with ice cooling one drop of 1N hydrogen chloride to adjust the pH to 2-3. To the resulting mixture was added 2 ml of ethyl acetate, followed by extraction by shaking for 10 minutes and centrifugal separation at 4° C. at 2500 rpm for 10 minutes.
The supernatant was transferred to a flask and concentrated. The residue was dissolved in 100 μl of ethanol, and the entire solution was spotted on a silica gel thin plate (Merck, 60 F254).
The plate was developed by approximately 18 cm with a developer solution (chloroform/methanol/acetic acid/waters=70:8:1:0.8), followed by measurement by a radiochromatoscanner of the sum of radioactivities of prostaglandin F2α, thromboxan B2, […], prostaglandin D2 and HHT to determine the inhibiting activity.

Where [1] appears, read: aggregation induced by arachidonic acid (50 μmol.), rabbit PRP, 37° C., 3 min incubation, read-out: 50% aggregation inhibitory concentration, Arachidonic acid.
Where [2] appears, read: aggregation induced by collagen (10 μg/ml), rabbit PRP, 37° C., 3 min incubation, read-out: 50% aggregation inhibitory concentration, Collagen.

Among the data in patent US4788197A, “Pyrazine derivatives useful as platelet aggregation inhibitors” (Terumo Kabushiki Kaisha, priority 1985, dated 1988) are IC50 values, retold here.

Like-named read-outs stand apart in the source and are kept apart here.

For `COc1ccc(-c2nc(C)c(C)nc2-c2ccc(OC)cc2)cc1` [Example 10, 2,3-bis(p-methoxyphenyl)-5,6-dimethylpyrazine], the IC50 with platelet aggregation (setting [1]) was 0.084 µM; in the assay on platelet aggregation (setting [2]), 0.92 µM; at cycloxygenase, 62 µM.

In the case of `c1ccc(Cc2cnc(-c3ccccc3)c(-c3ccccc3)n2)cc1` [Example 3, 2,3-diphenyl-5-benzylpyrazine], the IC50 with platelet aggregation (setting [1]) worked out at 8 µM; in the assay with platelet aggregation (setting [2]), 46 µM.

As to `COc1ccc(-c2ncc(Cc3cccs3)nc2-c2ccc(OC)cc2)cc1` [Example 9, 2,3-Bis(p-methoxyphenyl)-5-(2-thienylmethyl)pyrazine], the values for the IC50 in the assay with platelet aggregation (setting [1]), with platelet aggregation (setting [2]) and on cycloxygenase were 0.44 µM, 0.79 µM and 86 µM, respectively.

Turning to `COc1ccc(-c2ncc(Cc3ccccc3)nc2-c2ccc(OC)cc2)cc1` [Example 6, 2,3-Bis(p-methoxyphenyl)-5-benzylpyrazine], the IC50 is 0.2 µM in the assay with platelet aggregation (setting [1]) and 5 µM in the assay with platelet aggregation (setting [2]).

In the case of `COc1ccc(-c2ncc(C)nc2-c2ccc(OC)cc2)cc1` [Example 2, 2,3-bis(p-methoxyphenyl)-5-methylpyrazine], the IC50 was determined as 0.03 µM in the assay on platelet aggregation (setting [1]), 0.042 µM with platelet aggregation (setting [2]) and 30 µM on cycloxygenase.

With `COc1ccc(Cc2cnc(-c3ccccc3)c(-c3ccccc3)n2)cc1` [Example 4, 2,3-Diphenyl-5-(p-methoxybenzyl)pyrazine], the IC50 with platelet aggregation (setting [1]) was determined as 1.7 µM; with platelet aggregation (setting [2]) it was 35 µM; on cycloxygenase it was 220 µM.

Regarding `COc1ccc(-c2ncc(C(C)C)nc2-c2ccc(OC)cc2)cc1` [Example 7, 2,3-Bis(p-methoxyphenyl)-5-isopropylpyrazine], the IC50 in the assay on platelet aggregation (setting [1]) was found to be 0.025 µM; in the assay on platelet aggregation (setting [2]), 0.79 µM.

Regarding `COc1cccc(Cc2cnc(-c3ccccc3)c(-c3ccccc3)n2)c1` [Example 5, 2,3-Diphenyl-5-(m-methoxybenzyl)pyrazine], the IC50 came out at 4.5 µM in the assay with platelet aggregation (setting [1]) and 14 µM with platelet aggregation (setting [2]).

Consider `CCc1cnc(-c2ccc(OC)cc2)c(-c2ccc(OC)cc2)n1` [Example 8, 2,3-bis(p-methoxyphenyl)-5-ethylpyrazine], for which the results for the IC50 with platelet aggregation (setting [1]) and in the assay with platelet aggregation (setting [2]) were 0.046 µM and 0.64 µM, respectively.

Take `CC(=O)Oc1ccccc1C(=O)O` [Aspirin, acetylsalicylic acid, reference compound]: the IC50 in the assay on platelet aggregation (read-out: 50% aggregation inhibitory concentration, Arachidonic acid) stood at 14 µM; in the assay with platelet aggregation (read-out: 50% aggregation inhibitory concentration, Collagen) it was 560 µM.

As for `Cc1cnc(-c2ccc(Cl)cc2)c(-c2ccc(Cl)cc2)n1` [Example 1, 2,3-bis(p-chlorophenyl)-5-methylpyrazine], the figures for the IC50 with platelet aggregation (setting [1]) and in the assay on platelet aggregation (setting [2]) were 8.5 µM and 20 µM, respectively.
